Experimental data: US20100098671A1, “COMPOSITION FOR PREVENTION OR TREATMENT OF BONE MARROW DAMAGE” (MODERN CELL & TISSUE TECHNOLOGIES INC., priority 2007, published 2010)
No end group written: not given here.

How the values were obtained:
Format in all cases: in vivo, C57b1/6 mice
bone marrow cells = assay: Viable bone marrow cell count in gamma-irradiated mice
Description: (§1) In order to ascertain protective and regenerative effects of Substance-P on bone marrow, 8-week-old C57b1/6 mice were purchased as experimental animals and divided into three groups, each consisting of 6 animals (n=6): two experimental groups (administration of a test drug before and after induction of bone marrow damage) and a control group. For this purpose, bone marrow damage was induced by radiation in animals.
(§2) For the group used to confirm bone marrow-protective effects of Substance-P, 0.1 nmol/g of Substance-P was injected into caudal vein of mice, 1 day prior to radiation. 24 hours later, animals were irradiated with a gamma irradiator at a dose of 4 Gy. 4 hours after irradiation, 0.1 nmol/g of Substance-P diluted in PBS was injected once more into caudal vein of mice. Substance-P was diluted in PBS prior to use thereof.
(§3) For the group used to confirm bone marrow-regenerative effects of Substance-P, 0.1 nmol/g of Substance-P was intravenously administered to caudal veins of mice immediately after animals were irradiated with gamma rays. 24 hours later, Substance-P was intravenously administered once more to animals.
(§4) Bone marrow cells were isolated from animals 3 and 7 days after irradiation. For this purpose, femurs were isolated from mice and defatted to obtain the femoral bones only. A medium was allowed to flow from one end of the bone to the other end thereof using a 26-gauge syringe. This procedure was repeated five times to ensure that bone marrow cells were completely extracted from the bone. The cells were pooled in a tube, and centrifuged at 1500 rpm for 5 min and washed two times with PBS. The viable cell count was performed and compared between the drug-administered groups (administration of Substance-P before and after irradiation) and the non-administered group.

blood cells = assay: Viable blood cell count in gamma-irradiated mice; details: Substance-P administered before or after radiation-induced bone marrow damage
Description: as §1, §2, §3
Blood cells were isolated from animals 3 and 7 days after irradiation treatment was complete. For this purpose, whole blood (WB) was isolated from abdominal vena cava using a 26-gauge syringe. […]

[1] = tested on: hematopoietic stem cell colony formation of bone marrow cells; assay: CFU assay of bone marrow cells from irradiated mice in HSC-CFU media
Description: as §1, §2, §3, §4
When bone marrow cells and blood cells were prepared, the cells were inoculated onto 35 mm plates at a density of 3×10^3 bone marrow cells/plate and 5×10^6 blood cells/plate, respectively and cultured in hematopoietic stem cell-colony forming unit media (HSC-CFU media, available from Miltenyi). The cells were cultured without change of the culture medium for two weeks while a colony count was performed daily.

Substance P (RPKPQQFFGLM; not fully specified; ends and bridges not checked; UniProt P20366 58-68, looked up) [Substance-P]
viable bone marrow cell count vs non-administered group (bone marrow cells; Substance-P 0.1 nmol/g i.v. 1 day prior to and 4 h after 4 Gy irradiation, 3rd post-irradiation day): no significant difference
viable bone marrow cell count vs non-administered group (bone marrow cells; Substance-P 0.1 nmol/g i.v. 1 day prior to and 4 h after 4 Gy irradiation, after 7 days): about two-fold higher
viable bone marrow cell count vs non-administered group (bone marrow cells; Substance-P 0.1 nmol/g i.v. immediately after irradiation and 24 h later, 3rd post-irradiation day): no significant difference
viable bone marrow cell count vs non-administered group (bone marrow cells; Substance-P 0.1 nmol/g i.v. immediately after irradiation and 24 h later, after 7 days): about 2.5 fold
number of blood cells vs non-administered group (blood cells): significantly higher
day from which colony formation was observable ([1]; Substance-P after irradiation): 5 post-irradiation day
colony count vs non-administered group ([1]; Substance-P after irradiation, 2-week culture, 14th post-irradiation day): about 3 fold
colony formation ([1]; Substance-P after irradiation, 3rd post-irradiation day): no colony formation
colony count ([1]; Substance-P after irradiation, 7th post-irradiation day): significantly increased
colony count vs non-administered group ([1]; Substance-P prior to irradiation, 2-week culture, 14th post-irradiation day): about 9 fold
colony count vs non-administered group ([1]; Substance-P prior to irradiation, 3rd post-irradiation day): higher colony counts
colony count vs non-administered group ([1]; Substance-P prior to irradiation, 7th post-irradiation day): higher colony counts
colony count vs non-administered group ([1]; Substance-P prior to irradiation, immediately after irradiation): higher colony counts
